Assay results published in the NIST ThermoML archive (doi:10.1021/je400539h).
± gives the expanded uncertainty stated by the source.

Assay: xn = mol fraction of the nth substance listed
Settings: 101 kPa, Liquid

COc1ccccc1 [anisole] + CCCCCCOC(C)=O
x2 = 0
Settings	mass density [kg/m3]	speed of sound [m/s]	viscosity [mPa·s]
298.15 K	993.6 ± 1	1396 ± 12	0.97 ± 0.024
303.15 K	989.4 ± 1	1380 ± 12	0.917 ± 0.023
308.15 K	984.6 ± 1	1364 ± 12	0.863 ± 0.022
313.15 K	980 ± 1	1348 ± 11	0.803 ± 0.021

C1COCCO1 [1,4-dioxane] + CCCCCCOC(C)=O
x2 = 0
Settings	mass density [kg/m3]	speed of sound [m/s]	viscosity [mPa·s]
298.15 K	1028.2 ± 1	1328 ± 11	1.159 ± 0.028
303.15 K	1022.7 ± 1	1320 ± 11	1.087 ± 0.027
308.15 K	1017.4 ± 1	1312 ± 11	1.013 ± 0.025
313.15 K	1011.1 ± 1	1304 ± 11	0.934 ± 0.023

CCCCCCOC(C)=O [hexyl ethanoate] + C=COCCCC
x1 = 1
Settings	mass density [kg/m3]	speed of sound [m/s]	viscosity [mPa·s]
298.15 K	868.3 ± 1.5	1236 ± 11	1.071 ± 0.026
303.15 K	863.9 ± 1.5	1216 ± 11	0.982 ± 0.024
308.15 K	859.8 ± 1.5	1196 ± 11	0.899 ± 0.023
313.15 K	855 ± 1.5	1176 ± 10	0.836 ± 0.022

CCCCCCOC(C)=O [hexyl ethanoate] + COc1ccccc1
Settings	mass density [kg/m3]	speed of sound [m/s]	viscosity [mPa·s]
298.15 K, x1 = 0.0698	979.8 ± 1	1376 ± 12	1.022 ± 0.025
298.15 K, x1 = 0.1417	969.7 ± 1	1360 ± 12	1.031 ± 0.025
298.15 K, x1 = 0.221	959 ± 1.1	1344 ± 11	1.038 ± 0.026
298.15 K, x1 = 0.3061	947.7 ± 1.1	1328 ± 11	1.047 ± 0.026
298.15 K, x1 = 0.398	935.8 ± 1.2	1312 ± 11	1.054 ± 0.026
298.15 K, x1 = 0.4979	923.4 ± 1.2	1300 ± 11	1.058 ± 0.026
298.15 K, x1 = 0.606	910.5 ± 1.3	1284 ± 11	1.061 ± 0.026
298.15 K, x1 = 0.7254	896.9 ± 1.3	1268 ± 11	1.065 ± 0.026
298.15 K, x1 = 0.8556	882.9 ± 1.4	1252 ± 11	1.07 ± 0.026
298.15 K, x1 = 1	868.3 ± 1.5	1236 ± 11	1.071 ± 0.026
303.15 K, x1 = 0.0698	975 ± 1	1360 ± 12	0.932 ± 0.024
303.15 K, x1 = 0.1417	964.7 ± 1.1	1340 ± 11	0.94 ± 0.024
303.15 K, x1 = 0.221	953.8 ± 1.1	1324 ± 11	0.95 ± 0.024
303.15 K, x1 = 0.3061	942.6 ± 1.1	1304 ± 11	0.959 ± 0.024
303.15 K, x1 = 0.398	930.8 ± 1.2	1288 ± 11	0.967 ± 0.024
303.15 K, x1 = 0.4979	918.4 ± 1.2	1272 ± 11	0.972 ± 0.024
303.15 K, x1 = 0.606	905.5 ± 1.3	1260 ± 11	0.975 ± 0.024
303.15 K, x1 = 0.7254	891.9 ± 1.4	1244 ± 11	0.98 ± 0.024
303.15 K, x1 = 0.8556	878 ± 1.4	1232 ± 11	0.983 ± 0.024
303.15 K, x1 = 1	863.9 ± 1.5	1216 ± 11	0.982 ± 0.024
308.15 K, x1 = 0.0698	968.1 ± 1	1340 ± 11	0.86 ± 0.022
308.15 K, x1 = 0.1417	957.8 ± 1.1	1320 ± 11	0.872 ± 0.022
308.15 K, x1 = 0.221	947.1 ± 1.1	1296 ± 11	0.878 ± 0.023
308.15 K, x1 = 0.3061	936.2 ± 1.2	1280 ± 11	0.886 ± 0.023
308.15 K, x1 = 0.398	925 ± 1.2	1264 ± 11	0.894 ± 0.023
308.15 K, x1 = 0.4979	913 ± 1.3	1248 ± 11	0.898 ± 0.023
308.15 K, x1 = 0.606	900.3 ± 1.3	1236 ± 11	0.901 ± 0.023
308.15 K, x1 = 0.7254	886.8 ± 1.4	1224 ± 11	0.903 ± 0.023
308.15 K, x1 = 0.8556	873.1 ± 1.4	1208 ± 11	0.902 ± 0.023
308.15 K, x1 = 1	859.8 ± 1.5	1196 ± 11	0.898 ± 0.023
313.15 K, x1 = 0.0698	961.6 ± 1.1	1320 ± 11	0.779 ± 0.021
313.15 K, x1 = 0.1417	951.2 ± 1.1	1296 ± 11	0.791 ± 0.021
313.15 K, x1 = 0.221	940.5 ± 1.1	1272 ± 11	0.802 ± 0.021
313.15 K, x1 = 0.3061	929.8 ± 1.2	1252 ± 11	0.811 ± 0.021
313.15 K, x1 = 0.398	918.6 ± 1.2	1236 ± 11	0.823 ± 0.022
313.15 K, x1 = 0.4979	906.8 ± 1.3	1220 ± 11	0.828 ± 0.022
313.15 K, x1 = 0.606	894.4 ± 1.3	1204 ± 11	0.833 ± 0.022
313.15 K, x1 = 0.7254	881.2 ± 1.4	1192 ± 11	0.838 ± 0.022
313.15 K, x1 = 0.8556	867.8 ± 1.5	1184 ± 10	0.84 ± 0.022
313.15 K, x1 = 1	855 ± 1.5	1176 ± 10	0.836 ± 0.022
